How the values were obtained:
[1] = target: Beta-1 adrenergic receptor (Homo sapiens) (UniProt P08588); assay: beta 1 Eurofins-Cerep binding assay; set-up: ligand concentration 0.3 nM; conditions: Compound concentration 10.0 uM
[2] = target: Vasopressin V1a receptor (Homo sapiens) (UniProt P37288); assay: V1a Eurofins-Cerep binding assay; set-up: ligand concentration 0.3 nM; conditions: Compound concentration 10.0 uM
[3] = target: Cholecystokinin receptor type A (Homo sapiens) (UniProt P32238); assay: CCK1 (CCKA) Eurofins-Cerep binding assay; set-up: ligand concentration 0.08 nM; conditions: Compound concentration 10.0 uM
[4] = target: Glutamate NMDA receptor (Rattus norvegicus) (UniProt P35439+Q00959+Q00960+Q00961+Q62645+Q8VHN2+Q9R1M7); assay: Inhibitor of NMDA/R in the Eurofins Cerep SafetyScreen44 (BI) by Radioactive Assay (Cerep_66); type: protein-complex assay; conditions: Compound concentration 10.0 uM
[5] = target: Prostaglandin G/H synthase 1 (Homo sapiens) (UniProt P23219); assay: Inhibitor of COX-1 in the Eurofins Cerep SafetyScreen44 (BI) by Fluorimetry (Cerep_4173); conditions: Compound concentration 10.0 uM
Homo sapiens = species: Homo sapiens; assay: Agonist activity in the Eurofins Cerep SafetyScreen44 (BI) against N_NEURO_A4B2 by Radioligand Binding (Cerep_3029); type: protein-complex assay; conditions: Compound concentration 10.0 uM
[6] = target: Muscarinic acetylcholine receptor M2 (Homo sapiens) (UniProt P08172); assay: M2 Eurofins-Cerep binding assay; set-up: ligand concentration 2 nM; conditions: Compound concentration 10.0 uM
[7] = target: Mu-type opioid receptor (Homo sapiens) (UniProt P35372); assay: mu (MOP) Eurofins-Cerep binding assay; set-up: ligand concentration 0.5 nM; conditions: Compound concentration 10.0 uM
[8] = target: Histamine H1 receptor (Homo sapiens) (UniProt P35367); assay: H1 Eurofins-Cerep binding assay; set-up: ligand concentration 1 nM; conditions: Compound concentration 10.0 uM
[9] = target: MAO-A (amine oxidase [flavin-containing] A) (Homo sapiens, UniProt P21397); assay: Agonist activity in the Eurofins Cerep SafetyScreen44 (BI) against MAO-A_ANTAG by Scintillation counting (Cerep_443); set-up: scale not given: the % may be the effect or the level left; conditions: rat; compound concentration 10 uM; target entry is the homologue from another species; read-out: % Ctrl
B1 bradykinin receptor [10] = target: T1, B1 bradykinin receptor (Homo sapiens, UniProt P46663); assay: Measurement of intracellular calcium in HEK-cells expressing hBDKRB1 at up to 1 µM ( The compound antagonizes the effects of the specific B1 agonist [Lys-des-Arg9 ]-Bradykinin (10 nM) in a concentration-dependent manner.); type: functional, cell-based; set-up: compound concentration < 1 uM
T1 sequence (P46663 whole entry): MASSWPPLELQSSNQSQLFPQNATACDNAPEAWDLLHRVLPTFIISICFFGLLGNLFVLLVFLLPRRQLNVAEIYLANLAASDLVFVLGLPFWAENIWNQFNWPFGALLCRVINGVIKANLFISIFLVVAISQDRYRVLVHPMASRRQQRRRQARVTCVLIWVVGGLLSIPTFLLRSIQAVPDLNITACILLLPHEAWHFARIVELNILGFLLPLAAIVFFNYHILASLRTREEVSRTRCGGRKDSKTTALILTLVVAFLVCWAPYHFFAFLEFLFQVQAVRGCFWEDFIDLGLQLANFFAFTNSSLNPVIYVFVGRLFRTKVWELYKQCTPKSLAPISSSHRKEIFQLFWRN

hERG (KCNH2) = hERG (KCNH2) (Homo sapiens, UniProt Q12809); assay: Inhibitor of HERG_DOFETILIDE in the Eurofins Cerep SafetyScreen44 (BI) by Scintillation counting (Cerep_4094); set-up: scale not given: the % may be the effect or the level left; conditions: probe [3H]dofetilide, compound concentration 10 uM, read-out: % Ctrl
[11] = target: 5-hydroxytryptamine receptor 3A (Homo sapiens) (UniProt P46098); assay: 5-HT3 Eurofins-Cerep binding assay; set-up: ligand concentration 0.5 nM; conditions: Compound concentration 10.0 uM
Chain of 5-hydroxytryptamine receptor 3A (Homo sapiens) (P46098 whole entry): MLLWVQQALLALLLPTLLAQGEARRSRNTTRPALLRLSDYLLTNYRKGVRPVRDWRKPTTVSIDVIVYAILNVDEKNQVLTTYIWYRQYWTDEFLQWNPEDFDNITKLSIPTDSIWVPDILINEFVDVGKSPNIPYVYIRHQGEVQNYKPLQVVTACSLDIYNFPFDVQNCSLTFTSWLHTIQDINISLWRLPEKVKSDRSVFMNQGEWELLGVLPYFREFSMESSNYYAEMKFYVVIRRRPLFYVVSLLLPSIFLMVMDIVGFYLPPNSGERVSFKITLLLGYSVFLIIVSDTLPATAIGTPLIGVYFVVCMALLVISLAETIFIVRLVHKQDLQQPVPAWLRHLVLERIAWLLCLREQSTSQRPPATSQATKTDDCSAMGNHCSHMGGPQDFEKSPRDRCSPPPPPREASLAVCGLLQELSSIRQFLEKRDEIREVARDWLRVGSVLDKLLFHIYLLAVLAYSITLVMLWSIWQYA

[12] = target: Glucocorticoid receptor (Homo sapiens) (UniProt P04150); assay: GR Eurofins-Cerep binding assay; conditions: Compound concentration 10.0 uM
[13] = target: Cannabinoid receptor 1 (Homo sapiens) (UniProt P21554); assay: CB1 Eurofins-Cerep binding assay; conditions: Compound concentration 10.0 uM
Chain of Cannabinoid receptor 1 (Homo sapiens) (P21554 whole entry): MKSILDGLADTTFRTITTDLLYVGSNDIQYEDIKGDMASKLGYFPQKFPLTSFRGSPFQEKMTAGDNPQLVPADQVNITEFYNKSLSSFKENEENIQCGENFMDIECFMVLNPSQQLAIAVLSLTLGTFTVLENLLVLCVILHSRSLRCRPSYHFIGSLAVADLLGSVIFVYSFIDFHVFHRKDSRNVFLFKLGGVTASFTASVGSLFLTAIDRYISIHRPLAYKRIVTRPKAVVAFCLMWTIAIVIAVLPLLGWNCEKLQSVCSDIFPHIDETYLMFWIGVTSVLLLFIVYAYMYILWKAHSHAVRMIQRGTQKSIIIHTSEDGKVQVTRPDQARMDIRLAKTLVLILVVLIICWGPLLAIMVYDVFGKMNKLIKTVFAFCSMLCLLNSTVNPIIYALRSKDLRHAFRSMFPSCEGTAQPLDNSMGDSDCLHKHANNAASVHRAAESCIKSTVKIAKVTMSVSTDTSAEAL

[14] = target: Endothelin-1 receptor (Homo sapiens) (UniProt P25101); assay: ETA Eurofins-Cerep binding assay; set-up: ligand concentration 0.03 nM; conditions: Compound concentration 10.0 uM
[15] = target: Sodium-dependent dopamine transporter (Homo sapiens) (UniProt Q01959); assay: dopamine transporter Eurofins-Cerep binding assay; conditions: Compound concentration 10.0 uM
[16] = target: L-type calcium channel (dihydropyridine site), Cav1.2 alpha-1C (Rattus norvegicus, UniProt P22002); assay: Inhibitor of CA+/DHPSI/R in the Eurofins Cerep SafetyScreen44 (BI) by Radioactive Assay (Cerep_161); type: protein assay; set-up: scale not given: the % may be the effect or the level left; conditions: rat brain, probe [3H](+)PN200-110, compound concentration 10 uM, read-out: % Ctrl
B1 bradykinin receptor [17] = target: T1, B1 bradykinin receptor; assay: Radioligand binding assay (displacement of kallidin, hBDKRB1 ) at 10 µM ( Non-specific binding is estimated in the presence of 10 µM Des-Arg9- (Leu8)-Bradykinin. Membranes are filtered and washed, the filters are then counted to determine [3H]Kallidin[des-Arg10, Leu9] specifically bound.); set-up: compound concentration 10 uM
[18] = target: Sodium-dependent noradrenaline transporter (Homo sapiens) (UniProt P23975); assay: norepinephrine transporter Eurofins-Cerep binding assay; set-up: ligand concentration 1 nM; conditions: Compound concentration 10.0 uM
[19] = target: Delta-type opioid receptor (Homo sapiens) (UniProt P41143); assay: delta (DOP) Eurofins-Cerep binding assay; set-up: ligand concentration 0.5 nM; conditions: Compound concentration 10.0 uM
Chain of Delta-type opioid receptor (Homo sapiens) (P41143 whole entry): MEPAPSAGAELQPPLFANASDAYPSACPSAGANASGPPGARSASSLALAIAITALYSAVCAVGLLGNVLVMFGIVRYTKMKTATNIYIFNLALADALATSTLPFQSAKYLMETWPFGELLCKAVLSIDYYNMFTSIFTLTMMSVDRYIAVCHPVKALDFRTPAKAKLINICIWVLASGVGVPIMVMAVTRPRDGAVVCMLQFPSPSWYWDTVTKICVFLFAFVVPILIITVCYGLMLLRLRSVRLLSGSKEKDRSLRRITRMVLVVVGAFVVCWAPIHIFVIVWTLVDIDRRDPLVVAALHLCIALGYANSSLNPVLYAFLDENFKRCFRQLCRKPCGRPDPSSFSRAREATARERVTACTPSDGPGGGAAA

[20] = target: Prostaglandin G/H synthase 2 (Homo sapiens) (UniProt P35354); assay: Inhibitor of COX-2 in the Eurofins Cerep SafetyScreen44 (BI) by Fluorimetry (Cerep_4186); conditions: Compound concentration 10.0 uM
Chain of Prostaglandin G/H synthase 2 (Homo sapiens) (P35354 whole entry): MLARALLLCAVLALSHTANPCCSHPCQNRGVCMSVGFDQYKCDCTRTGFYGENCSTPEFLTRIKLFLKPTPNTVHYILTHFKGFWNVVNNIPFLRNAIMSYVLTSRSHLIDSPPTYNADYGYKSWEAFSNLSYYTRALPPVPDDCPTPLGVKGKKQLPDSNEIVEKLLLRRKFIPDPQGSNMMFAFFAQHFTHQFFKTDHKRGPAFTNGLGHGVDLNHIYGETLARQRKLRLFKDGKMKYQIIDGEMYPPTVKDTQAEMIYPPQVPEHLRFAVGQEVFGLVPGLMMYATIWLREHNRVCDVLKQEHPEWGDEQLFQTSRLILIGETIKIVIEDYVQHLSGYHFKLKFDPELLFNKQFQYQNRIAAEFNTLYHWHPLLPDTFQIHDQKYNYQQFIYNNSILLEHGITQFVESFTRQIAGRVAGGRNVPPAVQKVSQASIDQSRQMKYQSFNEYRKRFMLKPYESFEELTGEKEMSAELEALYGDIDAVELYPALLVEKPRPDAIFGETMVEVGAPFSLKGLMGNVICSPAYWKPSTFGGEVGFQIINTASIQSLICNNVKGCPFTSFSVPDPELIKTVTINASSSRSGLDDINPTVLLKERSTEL

[21] = target: Androgen receptor (Homo sapiens) (UniProt P10275); conditions: Compound concentration 10.0 uM
Description: Activity against ANDROGEN/H in the Eurofins Cerep SafetyScreen44 (BI) by Radioactive Assay (Cerep_933)

[22] = target: Alpha-1A adrenergic receptor (Homo sapiens) (UniProt P35348); assay: Agonist activity in the Eurofins Cerep SafetyScreen44 (BI) against ALPHA1AH_ANTAG by Scintillation counting (Cerep_2338); conditions: Compound concentration 10.0 uM
Chain of Alpha-1A adrenergic receptor (Homo sapiens) (P35348 whole entry): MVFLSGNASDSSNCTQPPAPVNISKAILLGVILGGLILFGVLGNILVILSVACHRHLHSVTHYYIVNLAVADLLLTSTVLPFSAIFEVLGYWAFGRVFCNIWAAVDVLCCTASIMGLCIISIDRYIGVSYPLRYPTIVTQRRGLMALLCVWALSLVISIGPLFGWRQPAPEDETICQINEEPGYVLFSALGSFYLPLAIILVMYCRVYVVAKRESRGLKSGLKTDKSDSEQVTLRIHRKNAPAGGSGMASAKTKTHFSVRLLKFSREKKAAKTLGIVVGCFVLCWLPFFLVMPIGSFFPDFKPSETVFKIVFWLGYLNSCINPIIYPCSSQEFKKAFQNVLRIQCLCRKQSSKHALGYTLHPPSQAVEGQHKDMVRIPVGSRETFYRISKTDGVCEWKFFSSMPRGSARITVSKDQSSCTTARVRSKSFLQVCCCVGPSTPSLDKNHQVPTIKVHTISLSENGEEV

[23] = target: 5-hydroxytryptamine receptor 2A (Homo sapiens) (UniProt P28223); assay: Agonist activity in the Eurofins Cerep SafetyScreen44 (BI) against 5HT2AH_AGON by Scintillation counting (Cerep_471); conditions: Compound concentration 10.0 uM
[24] = target: Sodium-dependent serotonin transporter (Homo sapiens) (UniProt P31645); assay: 5-HT transporter Eurofins-Cerep binding assay; set-up: ligand concentration 2 nM; conditions: Compound concentration 10.0 uM
[25] = target: Tyrosine-protein kinase Lck (Homo sapiens) (UniProt P06239); assay: Inhibitor of LCK_CE in the Eurofins Cerep SafetyScreen44 (BI) by lanthanide chelation excitation (Cerep_2906); conditions: Compound concentration 10.0 uM
[26] = target: 5-hydroxytryptamine receptor 1B (Homo sapiens) (UniProt P28222); assay: 5-HT1B Eurofins-Cerep binding assay; set-up: ligand concentration 1 nM; conditions: Compound concentration 10.0 uM
[27] = target: D(2) dopamine receptor (Homo sapiens) (UniProt P14416); assay: Agonist activity in the Eurofins Cerep SafetyScreen44 (BI) against D2SH_AGON by Scintillation counting (Cerep_1322); conditions: Compound concentration 10.0 uM
Rattus norvegicus [28] = species: Rattus norvegicus; assay: KV channel Eurofins-Cerep binding assay; set-up: ligand concentration 0.01 nM; conditions: Compound concentration 10.0 uM
[29] = target: Beta-2 adrenergic receptor (Homo sapiens) (UniProt P07550); assay: beta 2 Eurofins-Cerep binding assay; conditions: Compound concentration 10.0 uM
[30] = target: Muscarinic acetylcholine receptor M3 (Homo sapiens) (UniProt P20309); assay: M3 Eurofins-Cerep binding assay; set-up: ligand concentration 0.2 nM; conditions: Compound concentration 10.0 uM
Chain of Muscarinic acetylcholine receptor M3 (Homo sapiens) (P20309 whole entry, looked up): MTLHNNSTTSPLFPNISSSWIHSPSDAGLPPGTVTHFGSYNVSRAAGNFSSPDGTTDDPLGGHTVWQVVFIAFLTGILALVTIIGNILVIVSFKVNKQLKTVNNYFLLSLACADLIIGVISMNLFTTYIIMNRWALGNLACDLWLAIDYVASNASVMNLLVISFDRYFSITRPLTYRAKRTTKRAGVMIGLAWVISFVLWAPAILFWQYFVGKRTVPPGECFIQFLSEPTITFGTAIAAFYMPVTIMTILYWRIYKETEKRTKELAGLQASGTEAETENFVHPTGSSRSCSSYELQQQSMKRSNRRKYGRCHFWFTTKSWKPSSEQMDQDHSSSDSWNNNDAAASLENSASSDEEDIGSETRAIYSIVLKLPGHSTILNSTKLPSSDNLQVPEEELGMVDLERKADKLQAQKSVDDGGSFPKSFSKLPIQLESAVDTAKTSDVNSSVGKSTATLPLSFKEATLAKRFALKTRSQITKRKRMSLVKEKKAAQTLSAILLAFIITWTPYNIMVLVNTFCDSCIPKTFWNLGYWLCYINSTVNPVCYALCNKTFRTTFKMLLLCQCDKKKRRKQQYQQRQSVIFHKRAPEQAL

[31] = target: 3',5'-cyclic-AMP phosphodiesterase 4D (Homo sapiens) (UniProt Q08499); assay: Inhibitor of PDE4D2 in the Eurofins Cerep SafetyScreen44 (BI) by Scintillation counting (Cerep_4077); conditions: Compound concentration 10.0 uM
[32] = target: Kappa-type opioid receptor (Homo sapiens) (UniProt P41145); assay: kappa (KOP) Eurofins-Cerep binding assay; conditions: Compound concentration 10.0 uM
[33] = target: D(1A) dopamine receptor (Homo sapiens) (UniProt P21728); assay: D1 Eurofins-Cerep binding assay; set-up: ligand concentration 0.3 nM; conditions: Compound concentration 10.0 uM
Chain of D(1A) dopamine receptor (Homo sapiens) (P21728 whole entry): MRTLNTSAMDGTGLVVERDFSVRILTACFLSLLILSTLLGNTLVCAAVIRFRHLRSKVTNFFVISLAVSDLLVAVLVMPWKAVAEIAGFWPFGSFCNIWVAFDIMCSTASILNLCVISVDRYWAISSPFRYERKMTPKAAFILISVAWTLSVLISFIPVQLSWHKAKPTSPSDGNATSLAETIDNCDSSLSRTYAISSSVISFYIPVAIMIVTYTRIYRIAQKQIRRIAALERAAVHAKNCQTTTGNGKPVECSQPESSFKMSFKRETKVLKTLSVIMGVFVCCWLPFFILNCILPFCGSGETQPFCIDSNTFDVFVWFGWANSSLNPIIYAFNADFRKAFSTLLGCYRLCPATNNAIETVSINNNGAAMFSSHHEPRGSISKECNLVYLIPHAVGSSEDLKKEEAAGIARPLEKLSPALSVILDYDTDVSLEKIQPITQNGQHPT

[34] = target: Angiotensin-converting enzyme (Homo sapiens) (UniProt P12821); assay: Activity against ACE(HU_AMTCH400) in the Eurofins Cerep SafetyScreen44 (BI) by Photometry (Cerep_3441); conditions: Compound concentration 10.0 uM
[35] = target: Histamine H2 receptor (Homo sapiens) (UniProt P25021); assay: H2 Eurofins-Cerep binding assay; set-up: ligand concentration 0.075 nM; conditions: Compound concentration 10.0 uM
[36] = target: Cannabinoid receptor 2 (Homo sapiens) (UniProt P34972); assay: Activity against CB2/PERIPH/H in the Eurofins Cerep SafetyScreen44 (BI) by Radioactive Assay (Cerep_37); conditions: Compound concentration 10.0 uM
Chain of Cannabinoid receptor 2 (Homo sapiens) (P34972 whole entry): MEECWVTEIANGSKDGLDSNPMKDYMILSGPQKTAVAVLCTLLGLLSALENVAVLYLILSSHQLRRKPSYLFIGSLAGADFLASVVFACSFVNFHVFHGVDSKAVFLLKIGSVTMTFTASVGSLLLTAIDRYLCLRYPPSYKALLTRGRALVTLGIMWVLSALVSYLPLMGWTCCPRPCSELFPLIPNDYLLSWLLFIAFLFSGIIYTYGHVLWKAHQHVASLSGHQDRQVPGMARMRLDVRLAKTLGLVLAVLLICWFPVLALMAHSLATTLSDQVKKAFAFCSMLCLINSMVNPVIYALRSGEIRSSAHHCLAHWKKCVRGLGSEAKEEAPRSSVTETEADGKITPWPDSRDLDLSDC

[37] = target: 5-hydroxytryptamine receptor 1A (Homo sapiens) (UniProt P08908); assay: 5-HT1A Eurofins-Cerep binding assay; set-up: ligand concentration 0.5 nM; conditions: Compound concentration 10.0 uM
[38] = target: Muscarinic acetylcholine receptor M1 (Homo sapiens) (UniProt P11229); assay: M1 Eurofins-Cerep binding assay; set-up: ligand concentration 2 nM; conditions: Compound concentration 10.0 uM
[39] = target: Alpha-2A adrenergic receptor (Homo sapiens) (UniProt P08913); assay: Inhibitor of ALPHA2A/HU in the Eurofins Cerep SafetyScreen44 (BI) by Radioactive Assay (Cerep_13); conditions: Compound concentration 10.0 uM
[40] = target: cGMP-inhibited 3',5'-cyclic phosphodiesterase 3A (Homo sapiens) (UniProt Q14432); assay: Inhibitor of PDE3A in the Eurofins Cerep SafetyScreen44 (BI) by HTRF-homogeneous time resolved fluoresce (Cerep_4072); conditions: Compound concentration 10.0 uM
[41] = target: 5-hydroxytryptamine receptor 2B (Homo sapiens) (UniProt P41595); assay: 5-HT2B Eurofins-Cerep binding assay; conditions: Compound concentration 10.0 uM
Rattus norvegicus [42] = species: Rattus norvegicus; assay: Activity against BZD/CENTR/R in the Eurofins Cerep SafetyScreen44 (BI) by Radioactive Assay (Cerep_28); type: protein-complex assay; conditions: Compound concentration 10.0 uM
[43] = target: Adenosine receptor A2a (Homo sapiens) (UniProt P29274); assay: A2A Eurofins-Cerep binding assay; set-up: ligand concentration 6 nM; conditions: Compound concentration 10.0 uM
Chain of Adenosine receptor A2a (Homo sapiens) (P29274 whole entry): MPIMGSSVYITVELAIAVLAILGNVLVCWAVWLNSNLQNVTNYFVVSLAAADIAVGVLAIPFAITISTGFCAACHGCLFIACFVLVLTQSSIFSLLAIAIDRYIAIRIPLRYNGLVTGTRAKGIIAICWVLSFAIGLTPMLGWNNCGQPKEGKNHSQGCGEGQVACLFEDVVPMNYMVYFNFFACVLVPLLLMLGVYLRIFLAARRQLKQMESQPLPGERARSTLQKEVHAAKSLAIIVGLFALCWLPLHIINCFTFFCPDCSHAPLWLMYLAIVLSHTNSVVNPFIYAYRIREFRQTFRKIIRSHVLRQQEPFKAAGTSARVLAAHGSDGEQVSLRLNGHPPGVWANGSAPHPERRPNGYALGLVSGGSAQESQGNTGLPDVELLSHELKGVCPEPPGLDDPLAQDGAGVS

Chain of Vasopressin V1a receptor (Homo sapiens) (P37288 whole entry, looked up): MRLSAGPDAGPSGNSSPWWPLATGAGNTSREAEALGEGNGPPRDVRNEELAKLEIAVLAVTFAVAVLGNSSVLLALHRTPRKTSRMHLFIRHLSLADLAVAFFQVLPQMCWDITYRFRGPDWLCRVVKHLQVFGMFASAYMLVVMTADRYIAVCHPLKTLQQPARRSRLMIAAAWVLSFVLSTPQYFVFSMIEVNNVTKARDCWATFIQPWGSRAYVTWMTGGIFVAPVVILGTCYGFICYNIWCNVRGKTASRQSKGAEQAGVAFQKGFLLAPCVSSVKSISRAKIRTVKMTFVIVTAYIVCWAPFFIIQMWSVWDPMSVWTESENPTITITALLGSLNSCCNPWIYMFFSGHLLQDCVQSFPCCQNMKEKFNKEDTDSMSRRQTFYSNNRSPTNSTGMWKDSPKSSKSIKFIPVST

COc1cc(C)c(S(=O)(=O)N(C)CCC(=O)N[C@H]2CC[C@@H](N3CCC4CN(C)CC4C3)CC2)c(C)c1 (stereo not given in full)
120% (not active): activity at 10 µM [16]
63% (not active): activity at 10 µM (hERG (KCNH2))
active: residual activity [32] 42%
106% (not active): activity at 10 µM [9]
431 nM (not active): Ki (B1 bradykinin receptor [17])
699 nM (not active): IC50 (B1 bradykinin receptor [10])
inactive: residual activity [1] 97% | residual activity [2] 87% | residual activity [3] 85% | residual activity [4] 112% | residual activity [5] 85% | residual activity (Homo sapiens) 98% | residual activity [6] 67% | residual activity [7] 96% | residual activity [8] 104% | residual activity [11] 93% | residual activity [12] 102% | residual activity [13] 137% | residual activity [14] 109% | residual activity [15] 98% | residual activity [18] 93% | residual activity [19] 87% | residual activity [20] 98% | residual activity [21] 90% | residual activity [22] 91% | residual activity [23] 108% | residual activity [24] 103% | residual activity [25] 94% | residual activity [26] 92% | residual activity [27] 97% | residual activity (Rattus norvegicus [28]) 98% | residual activity [29] 101% | residual activity [30] 92% | residual activity [31] 104% | residual activity [33] 94% | residual activity [34] 97% | residual activity [35] 113% | residual activity [36] 106% | residual activity [37] 99% | residual activity [38] 89% | residual activity [39] 90% | residual activity [40] 105% | residual activity [41] 81% | residual activity (Rattus norvegicus [42]) 105% | residual activity [43] 124%

Source: ChEMBL document CHEMBL5723587, “Data for DCP probe BI-113823” (2024)
